pIC50: −log10 of the molar value. Calls of active or inactive are those of the source.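 Rule for the calls: active = maximal percent inhibition of the deubiquitinase OTUD3 of at least 30% across the tested doses; inactive = the rest.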
What follows are compounds tested against OTU domain-containing protein 3 (Homo sapiens) (UniProt Q5T2D3) (assay: Validation of screening hits, potency titration, in vitro enzymatic, OTU domain-containing protein 3 DUB inhibitors (AID 1645868)). Details: purified OTUD3, ubiquitin-rhodamine cleavage fluorescence, 2 h.
OTU domain-containing protein 3 (Homo sapiens), sequence (Q5T2D3 whole entry, looked up, the tested form may be a part): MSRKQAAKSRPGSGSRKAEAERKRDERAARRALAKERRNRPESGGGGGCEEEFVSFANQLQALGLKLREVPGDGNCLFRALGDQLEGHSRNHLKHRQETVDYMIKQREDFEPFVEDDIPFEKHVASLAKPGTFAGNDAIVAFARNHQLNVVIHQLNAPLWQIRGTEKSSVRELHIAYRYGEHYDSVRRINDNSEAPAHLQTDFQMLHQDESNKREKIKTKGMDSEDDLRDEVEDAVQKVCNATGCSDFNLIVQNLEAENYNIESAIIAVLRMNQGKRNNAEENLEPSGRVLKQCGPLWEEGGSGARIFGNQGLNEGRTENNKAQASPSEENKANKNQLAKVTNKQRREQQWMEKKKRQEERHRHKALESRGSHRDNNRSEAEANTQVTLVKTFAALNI

Row | SMILES | pIC50 | IC50
1 | CSc1ccc(CNC(=O)CC2CCN(S(=O)(=O)c3ccc(C)cc3)CC2)cc1 | 4.51 | –
2 | COc1cc2c(cc1OC)-c1cc(NCc3cc(OC)c(OC)c(OC)c3)nc(=O)n1CC2 | – | > 50 µM (inactive)
3 | Fc1ccc(Cn2ccc(-c3cnc(-c4ccccc4)s3)n2)cc1 | – | > 50 µM (inactive)
4 | O=S(=O)(c1ccccc1Cl)N1CCN(c2ccc3nnc(-c4ccco4)n3n2)CC1 | – | > 50 µM (inactive)
5 | Cc1ccc(-c2ccc(N3CCOCC3)nn2)cc1S(=O)(=O)N1CCOCC1 | – | > 50 µM (inactive)
6 | O=c1c2ccccc2oc2nc(-c3cccs3)n(-c3ccccc3)c(=O)c12 | 5.44 | –
7 | CCc1c(Cl)c(O)c(Cl)c(O)c1C(=O)O[C@H]1C(C)O[C@@H](OC/C2=C\C=C\CC(O)/C(C)=C/C(CC)C(O[C@@H]3OC(C)(C)[C@H](O)C(OC(=O)C(C)C)[C@@H]3O)/C(C)=C/C(C)=C/CC(C(C)O)OC2=O)[C@@H](OC)C1O (some centres undefined) | – | > 50 µM (inactive)
8 | Fc1cnc(N2CC[C@H]3CO[C@H](CNc4ncccn4)[C@H]3C2)nc1 | – | > 50 µM (inactive)
9 | COc1ccc(-c2cc(-c3ccccc3)nc(SCC(N)=O)c2C#N)cc1OC | 4.98 | –
10 | CN[C@H]1CC2(CCN(C(=O)CCCn3cccn3)CC2)OC[C@]1(C)O | – | > 50 µM (inactive)
11 | CCN1C(SCc2ccccc2F)=NS(=O)(=O)c2ccccc21 | – | > 50 µM (inactive)
12 | CC(C)N1CC2CN(Cc3ccc(Cl)cc3)CCN2Cc2ccccc21 (centres undefined) | – | > 50 µM (inactive)
13 | CCCc1c(C(=O)O)c(O[C@H]2O[C@H](C)[C@@H](OC)[C@H](OC)[C@@H]2OC)cc2cc3c(c(O)c12)C(=O)c1c(O)cc(O[C@@H]2O[C@@H](C)[C@H](O[C@H]4O[C@H](C)[C@@H](OC)[C@H](OC)[C@@H]4O)[C@@H](OC)[C@H]2O)cc1C3=O | – | > 50 µM (inactive)
14 | CC(=O)[C@H]1c2c(c(O)c3c(O)cccc3c2-c2c3c(c(O)c4c(O)cccc24)C(=O)C[C@](C)(O)[C@H]3C(C)=O)C(=O)C[C@]1(C)O | – | > 50 µM (inactive)
15 | COc1ccc(N2CCN(Cc3nnnn3Cc3ccc4c(c3)OCO4)CC2)cc1 | – | > 50 µM (inactive)
16 | CN(Cc1ccccc1)S(=O)(=O)c1ccc(S(=O)(=O)N2CCN(C(=O)c3cccnc3)CC2)cc1 | – | > 50 µM (inactive)
17 | O=c1c2ccccc2ncn1C1CCN(S(=O)(=O)c2ccccc2F)CC1 | – | > 50 µM (inactive)
18 | CN1CCN(C(=O)c2cc(-c3ccn(CC4CC4)n3)n3ccccc23)CC1 | – | > 50 µM (inactive)
19 | CC1CCN(c2nnc(-c3nc(C4CC4)no3)c3ccccc23)CC1 | – | > 50 µM (inactive)
20 | CN(C(=O)c1ccncc1)[C@H]1CC[C@@]2(C)C[C@H](c3ccccc3)C[C@](C)(O2)[C@@H]1O | – | > 50 µM (inactive)
21 | Cc1ccc(C)c(-n2c(C)cc(/C=C3/C(=N)N4C(c5ccc(F)cc5)=CSC4=NC3=O)c2C)c1 | – | > 50 µM (inactive)
22 | FC(F)(F)c1cccc(CSc2ccc3nnc(-c4ccccn4)n3n2)c1 | – | > 50 µM (inactive)
23 | CCOc1ccc(C2=NCCNC3=C2C(c2ccccc2)N(c2ccccc2)C3=O)cc1 (centres undefined) | – | > 50 µM (inactive)
24 | COc1ccc(CCNC(=O)[C@H](CCSC)NC(=O)N2CCn3c2nc2ccccc23)cc1OC | – | > 50 µM (inactive)
25 | COc1cc(C(=O)NC(Cc2ccccc2)c2nc3ccccc3[nH]2)cc(OC)c1OC (centres undefined) | 5.52 | –
26 | COc1cc(C)cc2c1C(=O)c1c(cc(O)c(Cl)c1O)C2=O | 5.68 | –
27 | CCCC[C@@H](C)/C=C(C)/C=C(\C)C(=O)NC1=C[C@](O)(/C=C/C=C/C=C/C(=O)NC2=C(O)CCC2=O)[C@@H]2O[C@@H]2C1=O | 5.48 | –
28 | COc1ccc(S(=O)(=O)N2CCN3Cc4ccccc4N(C)CC3C2)cc1 (centres undefined) | – | > 50 µM (inactive)

More lines, now with the values ahead:

Row | pIC50 | IC50 | SMILES
29 | 4.57 | – | CCOc1ccc(NC(=O)c2cc(-c3ccccc3)c(N3CCOCC3)s2)cc1
30 | 4.45 | – | COc1ccc(NC(=O)CC(=O)c2ccc([N+](=O)[O-])cc2)cc1S(=O)(=O)Nc1ccc(Cl)cc1
31 | – | > 50 µM (inactive) | COc1ccc(NC(=O)c2ccc(-n3nnnc3SC)cc2)cc1Cl
32 | – | > 50 µM (inactive) | COc1ccc(OC)c(-c2cc(C(=O)Nc3c(C)nn(Cc4ccccc4)c3C)no2)c1
33 | – | > 50 µM (inactive) | O=C(NC(Cc1ccccc1)c1nc2ccccc2[nH]1)C1CC1 (centres undefined)
34 | 4.79 | – | Cc1cc(=O)n(CC(=O)Nc2ccccc2F)c(Nc2ccc(F)cc2)n1
35 | 4.93 | – | CC(=O)Nc1ccc(S(=O)(=O)NCc2ccc(C(=O)NCCc3ccc(Cl)cc3)cc2)cc1
36 | – | > 50 µM (inactive) | Cc1ccccc1C(=O)NCCn1cc(SCC(=O)Nc2ccc3c(c2)OCCO3)c2ccccc21
37 | 5.43 | – | CC1=C(Cn2c3cccc(=O)c-3nc3ccccc32)CCC(C)(C)C1
38 | 4.41 | – | O=C(Nc1ccc(F)cc1)Nc1ccccc1OCc1cc(=O)n2ccccc2n1
39 | – | > 50 µM (inactive) | Cc1cc(O)cc2cc3c(c(O)c12)C(=O)CCC3O (centres undefined)
40 | – | > 50 µM (inactive) | Cn1nc(-c2ccccc2)c(COC(=O)c2ccc([N+](=O)[O-])cc2)c1Cl
41 | 4.47 | – | COc1ccc(OC)c(NC(=O)CS(=O)(=O)c2cn(CC(=O)N3CCC(C)CC3)c3ccccc23)c1
42 | 4.33 | – | Cc1cc(C(=O)NC2(O)C(=O)c3ccccc3C2=O)n(C)n1
43 | 4.89 | – | O=C(COC(=O)c1ccc(Cl)cc1)Nc1ccc2[nH]c(=O)[nH]c2c1
44 | 4.53 | – | CCc1ccc(NC(=O)Cc2nnc3cc(-c4nc(C)no4)ccn23)cc1
45 | 4.54 | – | Cc1nnc(C(=O)Nc2ccc(C(=O)NCc3ccccc3C)cc2)s1
46 | – | > 50 µM (inactive) | O=C(Cn1c(=O)n(Cc2ccco2)c(=O)c2ccc(C(=O)NC3CCCC3)cc21)NCc1ccco1

Row | pIC50 | IC50 | SMILES
47 | – | > 50 µM (inactive) | COc1cccc(NC(=O)Nc2ccc3nc4n(c(=O)c3c2)CCCC4)c1
48 | – | > 50 µM (inactive) | CC(C)(C)c1cc(CCC(=O)Nc2c3c(nc4c2CCC4)CCCC3)cc(C(C)(C)C)c1O
49 | – | > 50 µM (inactive) | O=C(Nc1ccccc1)c1cn(-c2cc(N3CCCC3)ncn2)cn1
50 | – | > 50 µM (inactive) | O=C1N(Cc2cccc(Cl)c2)CCN1c1ccc2c(c1)CCC2
51 | 4.45 | – | CN(C)c1cccc(C(=O)Nc2cc(-c3cccnc3)no2)c1
52 | – | > 50 µM (inactive) | O=C(Nc1cc(F)c2nc(N3CCCC3)ccc2c1)c1ccco1
53 | – | > 50 µM (inactive) | Cc1ccc(-c2nc(N3CCCC(O)C3)ncc2-c2cnccn2)s1 (centres undefined)
54 | 4.63 | – | Nc1ccc(NC(=O)c2cc3c(s2)CCC3)cc1[N+](=O)[O-]
55 | – | > 50 µM (inactive) | CCOC(=O)c1cn(C2CC2)c2cc(N3CCNCC3)c([N+](=O)[O-])cc2c1=O
56 | 4.33 | – | CC1=C(c2ccc(C)c(C)c2)S(=O)(=O)NC1=NCC(=O)NCCCc1ccccc1
57 | – | > 50 µM (inactive) | FC(F)(F)c1cccc(Nc2nnc(-c3cccnc3)s2)c1
58 | – | > 50 µM (inactive) | COc1ccc(C(=O)Nc2ccc3c(c2)Sc2ncccc2C(=O)N3C)cn1
59 | – | > 50 µM (inactive) | O=C(O)c1ccccc1C(=O)Nc1ccc(SC(C(=O)Nc2ccccc2)c2ccccc2)cc1 (centres undefined)
60 | – | > 50 µM (inactive) | Cc1nc2cc(C(=O)NCCC3=CCCCC3)ccc2n1-c1cccc(F)c1
61 | – | > 50 µM (inactive) | O=C(Nc1ccc2c(c1)OCCO2)C1CCN(C(=O)c2cc(-c3cccnc3)n[nH]2)CC1
62 | – | > 50 µM (inactive) | COc1cccc2sc(N3CCN(c4nc5ccccc5s4)CC3)nc12
63 | – | > 50 µM (inactive) | Cc1cc(C(=O)N2CC(C(=O)Nc3cc(C(F)(F)F)ccc3Cl)C2)no1
64 | – | > 50 µM (inactive) | Cc1ccccc1NC(=O)Cn1cc(-c2nc(C3CC3)no2)ccc1=O

— PubChem BioAssay AID1645868 (Buhrlage Lab, Dana-Farber Cancer Institute and Novartis …, 2021)
